According to ChEMBL document CHEMBL1201862, “PubChem BioAssay data set” (2004):
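Where inhibition never reached the appropriate level, the endpoint shown equals the highest concentration tested. Otherwise, values were interpolated linearly from a five-concentration, 48-hour dose response in 96-well plates. GI50 marks 50% less growth.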 Active and inactive are the calls of the source. Cut-off read from the data, not from the text of the source: active = GI50 up to about 1.1 µM and inactive = higher.

Legend:
Assay in all cases: NCI anticancer screen, dose series, 48 h
[1] = test system: A498
[2] = test system: ACHN
[3] = test system: CAKI-1
[4] = test system: CCRF-CEM
[5] = test system: HCC 2998
[6] = test system: IGROV-1
[7] = test system: KM12
[8] = test system: M14
[9] = test system: MDA-N
[10] = test system: NCI-H226
[11] = test system: NCI/ADR-RES
[12] = test system: SK-MEL-28
[13] = test system: SK-MEL-5
[14] = test system: SNB-19
[15] = test system: UO-31
[16] = test system: K562
[17] = test system: RPMI-8226
[18] = test system: SK-MEL-2
[19] = test system: T47D

Structure (SMILES) | GI50 [1] | GI50 [2] | GI50 [3] | GI50 [4] | GI50 [5] | GI50 [6] | GI50 [7] | GI50 [8] | GI50 [9] | GI50 [10] | GI50 [11] | GI50 [12] | GI50 [13] | GI50 [14] | GI50 [15] | GI50 [16] | GI50 [17] | GI50 [18] | GI50 [19]
CN(CCCNC(=O)c1cn(C)c2c1ccc1ccccc12)CCCNC(=O)c1cn(C)c2c1ccc1ccccc12 | 14.7 µM (inactive) | 1.71 µM (inactive) | 1.53 µM (inactive) | 2.26 µM (inactive) | 1.41 µM (inactive) | 1.11 µM (active) | 1.61 µM (inactive) | 1.58 µM (inactive) | 1.45 µM (inactive) | 1.66 µM (inactive) | 1.77 µM (inactive) | 1.69 µM (inactive) | 1.65 µM (inactive) | 2.33 µM (inactive) | 1.44 µM (inactive) | – | – | – | –
CC1SC2=NC3=C(c4ccccc4C3=O)C(c3ccc(Br)cc3)N2C1=O (stereo not given) | > 100 µM (inactive) | > 100 µM (inactive) | 80.9 µM (inactive) | 33.3 µM (inactive) | 60.8 µM (inactive) | > 100 µM (inactive) | > 100 µM (inactive) | 96.4 µM (inactive) | – | 23.2 µM (inactive) | – | 43 µM (inactive) | 41.2 µM (inactive) | 38 µM (inactive) | 8.47 µM (inactive) | 44.6 µM (inactive) | 31.6 µM (inactive) | 48.1 µM (inactive) | –
CCC(/C=C/c1ccccc1)=N\Nc1ccc(Cl)c(Cl)c1 | – | 26.7 µM (inactive) | 34.9 µM (inactive) | 62.4 µM (inactive) | 25.9 µM (inactive) | 5.14 µM (inactive) | 29.3 µM (inactive) | 56.4 µM (inactive) | 34.3 µM (inactive) | 21.5 µM (inactive) | 31.9 µM (inactive) | 48.1 µM (inactive) | 13.8 µM (inactive) | 52.1 µM (inactive) | 21.4 µM (inactive) | 32.9 µM (inactive) | 19.1 µM (inactive) | 17.7 µM (inactive) | 49.9 µM (inactive)
OC12CCCCCC1(N1CCOCC1)c1ccccc12 (stereo not given) | > 100 µM (inactive) | > 100 µM (inactive) | > 100 µM (inactive) | > 100 µM (inactive) | > 100 µM (inactive) | > 100 µM (inactive) | > 100 µM (inactive) | > 100 µM (inactive) | – | > 100 µM (inactive) | – | > 100 µM (inactive) | > 100 µM (inactive) | > 100 µM (inactive) | > 100 µM (inactive) | > 100 µM (inactive) | > 100 µM (inactive) | > 100 µM (inactive) | –
CCN(CC)CCCNc1nc(=O)[nH]c(C)c1C(=O)Nc1c2ccccc2nc2ccccc12 | 5.22 µM (inactive) | 10.2 µM (inactive) | 7.28 µM (inactive) | 5.68 µM (inactive) | 8.79 µM (inactive) | 6.85 µM (inactive) | 3.56 µM (inactive) | 15.5 µM (inactive) | 4.86 µM (inactive) | 14.9 µM (inactive) | 12.9 µM (inactive) | 12.3 µM (inactive) | 10.8 µM (inactive) | 8.71 µM (inactive) | 5.6 µM (inactive) | 4.75 µM (inactive) | 5.9 µM (inactive) | 20.8 µM (inactive) | 10.7 µM (inactive)
CCOC(CN(C)C(=S)Nc1cccc2ccccc12)OCC | 6.95 µM (inactive) | > 10 µM (inactive) | > 10 µM (inactive) | > 10 µM (inactive) | > 10 µM (inactive) | > 10 µM (inactive) | > 10 µM (inactive) | > 10 µM (inactive) | > 10 µM (inactive) | > 10 µM (inactive) | > 10 µM (inactive) | > 10 µM (inactive) | > 10 µM (inactive) | > 10 µM (inactive) | > 10 µM (inactive) | > 10 µM (inactive) | > 10 µM (inactive) | > 10 µM (inactive) | > 10 µM (inactive)
O=C1CN(c2cccc(C(F)(F)F)c2)C(=O)CN1CCN1CC(=O)N(c2cccc(C(F)(F)F)c2)CC1=O | – | > 100 µM (inactive) | – | > 100 µM (inactive) | > 100 µM (inactive) | > 100 µM (inactive) | > 100 µM (inactive) | > 100 µM (inactive) | > 100 µM (inactive) | – | > 100 µM (inactive) | > 100 µM (inactive) | > 100 µM (inactive) | > 100 µM (inactive) | > 100 µM (inactive) | > 100 µM (inactive) | > 100 µM (inactive) | – | > 100 µM (inactive)
O=[N+]([O-])c1ccc(-n2nnc(C3=NCCCN3)c2-c2ccc(Cl)cc2)cc1 | > 100 µM (inactive) | > 100 µM (inactive) | > 100 µM (inactive) | > 100 µM (inactive) | > 100 µM (inactive) | > 100 µM (inactive) | > 100 µM (inactive) | 54 µM (inactive) | – | > 100 µM (inactive) | – | 32.7 µM (inactive) | 82.2 µM (inactive) | > 100 µM (inactive) | 42.3 µM (inactive) | 61.1 µM (inactive) | > 100 µM (inactive) | 33.5 µM (inactive) | –
O=C(Nc1cnc(O)nc1O)C(Cl)Cl | > 100 µM (inactive) | > 100 µM (inactive) | > 100 µM (inactive) | > 100 µM (inactive) | > 100 µM (inactive) | > 100 µM (inactive) | > 100 µM (inactive) | > 100 µM (inactive) | > 100 µM (inactive) | > 100 µM (inactive) | > 100 µM (inactive) | > 100 µM (inactive) | > 100 µM (inactive) | > 100 µM (inactive) | > 100 µM (inactive) | > 100 µM (inactive) | > 100 µM (inactive) | > 100 µM (inactive) | > 100 µM (inactive)
C#CCC(N)(CO)C(=O)O (stereo not given) | > 100 µM (inactive) | > 100 µM (inactive) | > 100 µM (inactive) | > 10 µM (inactive) | > 100 µM (inactive) | > 100 µM (inactive) | > 100 µM (inactive) | > 100 µM (inactive) | – | > 100 µM (inactive) | – | > 100 µM (inactive) | > 100 µM (inactive) | > 100 µM (inactive) | > 100 µM (inactive) | > 100 µM (inactive) | > 100 µM (inactive) | > 100 µM (inactive) | –
O=C(c1ccccc1)N1C(=S)NC(=N/c2ccccc2)/C1=N\c1ccccc1 | > 100 µM (inactive) | > 100 µM (inactive) | > 100 µM (inactive) | > 100 µM (inactive) | > 100 µM (inactive) | > 100 µM (inactive) | > 100 µM (inactive) | – | > 100 µM (inactive) | > 100 µM (inactive) | > 100 µM (inactive) | > 100 µM (inactive) | > 100 µM (inactive) | > 100 µM (inactive) | > 100 µM (inactive) | > 100 µM (inactive) | > 100 µM (inactive) | > 100 µM (inactive) | > 100 µM (inactive)
COC1=CC(=O)c2c(cc(COP(N)(=O)N(CCBr)CCBr)n2C)C1=O (stereo not given) | 1.26 µM (inactive) | < 0.01 µM (active) | < 0.01 µM (active) | < 0.01 µM (active) | – | 0.0188 µM (active) | 1 µM (active) | < 0.01 µM (active) | 0.242 µM (active) | < 0.01 µM (active) | 0.184 µM (active) | 1.56 µM (inactive) | 0.418 µM (active) | 1.3 µM (inactive) | 0.131 µM (active) | 0.135 µM (active) | < 0.01 µM (active) | 1.7 µM (inactive) | < 0.01 µM (active)
